Assay results: PubChem BioAssay (NCI)
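A five-concentration, 48-hour dose response in 96-well plates underlies each endpoint, interpolated linearly between surrounding concentrations. At the GI50, growth is halved. TGI denotes the concentration required for complete inhibition of growth.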

Key:
Test in all cases: NCI tumour cell line growth inhibition, 48 h
[1] = tested on: SF-268 CNS
[2] = tested on: A549 NSCLC
[3] = tested on: MALME-3M melanoma
[4] = tested on: SF-295 CNS
[5] = tested on: SW-620 colon
[6] = tested on: TK-10 renal
[7] = tested on: LOX IMVI melanoma
[8] = tested on: HOP-62 NSCLC
[9] = tested on: OVCAR-8 ovarian
[10] = tested on: CAKI-1 renal

SMILES	TGI [1] [µM]	TGI [2] [µM]	TGI [3] [µM]	TGI [4] [µM]	TGI [5] [µM]	TGI [6] [µM]	TGI [7] [µM]	TGI [8] [µM]	TGI [9] [µM]	TGI [10] [µM]	GI50 [1] [µM]	GI50 [2] [µM]	GI50 [3] [µM]	GI50 [4] [µM]	GI50 [5] [µM]	GI50 [6] [µM]	GI50 [7] [µM]	GI50 [8] [µM]	GI50 [9] [µM]	GI50 [10] [µM]
COc1ccc(NC(=O)C2=CC(=O)c3ccc(O)cc3C2=O)c(OC)c1	> 100	> 100	> 100	> 100	> 100	> 100	> 100	> 100	> 100	> 100	–	–	–	–	–	–	–	–	–	–
CSCC(COC(C)=O)(CSC)c1ccncc1	> 100	> 100	> 100	> 100	> 100	> 100	> 100	> 100	> 100	> 100	–	–	–	–	–	–	–	–	–	–
[Au+].c1c[n-]cn1.c1ccc([PH+](c2ccccc2)c2ccccc2)cc1	28.3	42.6	4.25	26.6	3.28	6.46	15.2	43	37.1	16.4	3.32	11.7	1.96	11.8	1.81	2.66	4.03	6.24	9.28	4.69
O=C(c1ccccc1)c1c2n(c3c1cc(O)c1ccccc13)CCN2	9.85	35.5	4.19	20.8	14.8	75.2	6.87	17.9	7.67	52.5	3.19	14.2	1.97	7.11	3.47	23.1	2.7	5.6	2.7	11.1
N/C(=N\C(N)=N\c1nc2ccccc2s1)c1ccnc(Br)c1	> 100	> 100	> 100	> 100	> 100	> 100	> 100	57.2	> 100	> 100	5.88	22.1	6.22	4.25	3.91	52	4.27	3.65	10.3	3.33
Cc1cc2nc3c4cc([N+](=O)[O-])ccc4n(CCN(C)C)c3nc2cc1C	6.92	3.67	1.87	1.79	7.19	4.34	1.19	> 40	> 88	2.21	0.787	0.397	0.527	0.388	0.301	0.373	0.28	0.579	0.509	0.334
CCN(CC)CC(O)c1cc(-c2ccc(Cl)cc2)nc2cc(Cl)ccc12 (stereo not given)	8.06	3.63	3.62	3.37	3.33	3.09	2.51	4.05	4.12	2.64	2.69	1.9	1.78	1.81	1.73	1.65	1.24	1.93	1.96	1.21
c1cnc2nc3n(c2c1)CSC3	> 100	> 100	> 100	> 100	> 100	> 100	> 100	> 100	> 100	> 100	–	–	–	–	–	–	–	–	–	–
CCN(CC)CCNC(=O)C(Cl)=C1C(Cl)=C(Cl)C(Cl)=C1Cl	22	76.9	47.3	29.3	12.5	> 100	4.53	15.5	> 100	> 100	3.25	4.22	11.9	5.39	3.25	3.07	1.83	3.94	2.81	2.73
CC(C)OC(=O)c1cccnc1/C=N/O	> 100	> 100	> 100	> 100	> 100	> 100	> 100	> 100	> 100	> 100	–	–	–	–	–	–	–	–	–	–
COc1cc([C@@H]2c3cc4c(cc3[C@@H](NC(=O)c3ccc(OC(C)=O)cc3)C3COC(=O)[C@@H]32)OCO4)cc(OC)c1O (stereo not given in full)	> 100	10.6	11.1	50.9	15	30.8	10.1	3.12	18.5	15.8	–	–	–	–	–	–	–	–	–	–
